These results are taken from ChEMBL document CHEMBL1141018, “Synthesis and biological evaluation of homopiperazine derivatives with beta-aminoacyl group as dipeptidyl peptidase IV inhibitors” (Bioorg Med Chem Lett, 2008).

As a reminder, the IC50 is the concentration needed to halve the response being measured. A higher IC50 goes with weaker potency.

The target in one assay is Dipeptidyl peptidase 4 (Homo sapiens, UniProt P27487).
Sequence of Dipeptidyl peptidase 4 (P27487 whole entry): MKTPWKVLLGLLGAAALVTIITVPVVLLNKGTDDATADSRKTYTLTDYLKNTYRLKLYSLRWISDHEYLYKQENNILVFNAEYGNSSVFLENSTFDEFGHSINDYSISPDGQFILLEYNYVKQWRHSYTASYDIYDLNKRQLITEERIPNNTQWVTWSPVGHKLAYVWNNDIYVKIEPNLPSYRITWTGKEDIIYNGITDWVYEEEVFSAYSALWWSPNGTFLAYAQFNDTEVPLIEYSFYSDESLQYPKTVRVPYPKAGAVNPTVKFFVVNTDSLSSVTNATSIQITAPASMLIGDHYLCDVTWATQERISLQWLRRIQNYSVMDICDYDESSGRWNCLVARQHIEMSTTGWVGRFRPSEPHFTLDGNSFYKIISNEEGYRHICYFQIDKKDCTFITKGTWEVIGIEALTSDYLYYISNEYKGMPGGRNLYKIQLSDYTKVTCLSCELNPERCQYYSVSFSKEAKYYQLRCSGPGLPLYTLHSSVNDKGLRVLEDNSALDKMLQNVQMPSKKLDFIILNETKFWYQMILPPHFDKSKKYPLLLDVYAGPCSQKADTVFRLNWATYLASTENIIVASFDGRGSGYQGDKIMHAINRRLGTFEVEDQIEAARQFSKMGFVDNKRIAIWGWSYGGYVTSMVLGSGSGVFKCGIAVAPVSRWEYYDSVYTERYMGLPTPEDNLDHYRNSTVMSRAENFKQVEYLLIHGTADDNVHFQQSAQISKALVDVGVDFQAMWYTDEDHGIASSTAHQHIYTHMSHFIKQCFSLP
In turn, `N[C@@H](CC(=O)N1CCCN(c2ncccn2)CC1)Cc1cc(F)c(F)cc1F` yielded a 50% inhibitory concentration (IC50) of 597 nM.

In turn, `N[C@@H](CC(=O)N1CCCN(S(=O)(=O)c2ccc(C(=O)O)cc2)CC1)Cc1cc(F)c(F)cc1F` gave a half-inhibitory concentration (IC50) of 239 nM.

`NC(=O)c1ccc(C(=O)N2CCCN(C(=O)C[C@H](N)Cc3cc(F)c(F)cc3F)CC2)cc1` gave an IC50 of 180 nM.

In turn, `CN1CCN(C(=O)N2CCCN(C(=O)C[C@H](N)Cc3cc(F)c(F)cc3F)CC2)CC1` came in with an IC50 of 1500 nM. Against the preceding compound, the IC50 is about 8.3-fold higher.

`N[C@@H](CC(=O)N1CCCN(C(=O)c2ccc(S(N)(=O)=O)cc2)CC1)Cc1cc(F)c(F)cc1F` registered an IC50 of 288 nM. Compared with the last compound, the IC50 is about 5.2-fold lower.

Take `N[C@@H](CC(=O)N1CCCNCC1)Cc1cc(F)c(F)cc1F`: 1440 nM corresponded to half-maximal inhibition (IC50).

With `N[C@@H](CC(=O)N1CCCN(C(=O)c2cncc(C(=O)O)c2)CC1)Cc1cc(F)c(F)cc1F`, the half-inhibitory concentration (IC50) was 67 nM.

`N[C@@H](CC(=O)N1CCCN(C(=O)Nc2ccc(C(=O)O)cc2)CC1)Cc1cc(F)c(F)cc1F` showed a half-maximal inhibitory concentration (IC50) of 788 nM.

The compound `N[C@@H](CC(=O)N1CCCN(C(=O)c2cccc(C(=O)O)c2)CC1)Cc1cc(F)c(F)cc1F` had a 50% inhibitory concentration (IC50) of 50 nM.

On to `N[C@@H](CC(=O)N1CCCN(C(=O)c2cccnc2)CC1)Cc1cc(F)c(F)cc1F`, for which the concentration for half-maximal inhibition (IC50) amounted to 410 nM.

Turning to `N[C@@H](CC(=O)N1CCCN(C(=O)c2ccccc2)CC1)Cc1cc(F)c(F)cc1F`, the 50% inhibitory concentration (IC50) worked out at 510 nM.

`CC(=O)N1CCCN(C(=O)C[C@H](N)Cc2cc(F)c(F)cc2F)CC1`: the IC50 is 3400 nM.

Compound `N[C@@H](CC(=O)N1CCCN(C(=O)c2ccc(C(=O)O)o2)CC1)Cc1cc(F)c(F)cc1F` displayed a 50% inhibitory concentration (IC50) of 260 nM.

`CCN1CCCN(C(=O)C[C@H](N)Cc2cc(F)c(F)cc2F)CC1` showed an IC50 of 6400 nM.

On to `N[C@@H](CC(=O)N1CCCN(c2cnccn2)CC1)Cc1cc(F)c(F)cc1F`, for which the IC50 stood at 423 nM.

The compound `CS(=O)(=O)N1CCCN(C(=O)C[C@H](N)Cc2cc(F)c(F)cc2F)CC1` registered an IC50 of 3100 nM. Compared with the last compound, the IC50 is about 7.3-fold higher.

As to `N[C@@H](CC(=O)N1CCCN(C(=O)Nc2ccccc2)CC1)Cc1cc(F)c(F)cc1F`, the 50% inhibitory concentration (IC50) is 1390 nM.

As to `N[C@@H](CC(=O)N1CCCN(C(=O)c2ccc(C(=O)O)nc2)CC1)Cc1cc(F)c(F)cc1F`, the 50% inhibitory concentration (IC50) amounted to 150 nM.

On to `N[C@@H](CC(=O)N1CCCN(Cc2ccccc2)CC1)Cc1cc(F)c(F)cc1F`, for which the IC50 is 387 nM.

In turn, `N[C@@H](CC(=O)N1CCCN(C(=O)c2ccc3c(c2)OCO3)CC1)Cc1cc(F)c(F)cc1F` had an IC50 of 490 nM.

Regarding `N[C@@H](CC(=O)N1CCCN(C(=O)OCc2ccccc2)CC1)Cc1cc(F)c(F)cc1F`, the midpoint of inhibition, the IC50, lay at 490 nM.

`Cc1ccc(S(=O)(=O)N2CCCN(C(=O)C[C@H](N)Cc3cc(F)c(F)cc3F)CC2)cc1` showed an IC50 of 350 nM.

The compound `N[C@@H](CC(=O)N1CCCN(S(=O)(=O)c2ccc([N+](=O)[O-])cc2)CC1)Cc1cc(F)c(F)cc1F` came in with a concentration for half-maximal inhibition (IC50) of 405 nM.

Another assay deals with Dipeptidyl peptidase 2 (Homo sapiens, UniProt Q9UHL4). Kind of assay: Inhibition of DPP2.
`N[C@@H](CC(=O)N1CCCN(C(=O)c2cncc(C(=O)O)c2)CC1)Cc1cc(F)c(F)cc1F` showed an IC50 of 99400 nM.

`N[C@@H](CC(=O)N1CCCN(C(=O)c2cccc(C(=O)O)c2)CC1)Cc1cc(F)c(F)cc1F` returned an IC50 of 46800 nM. This IC50 is about 2.1-fold lower than that of the compound before.
